Assay results from PubChem BioAssay AID1224920 (Broad Institute, 2016).
Calls of active or inactive are those of the source.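 The calls were made as follows: active = IC50 no higher than ten times the top tested dose; inconclusive = flat fit with 30 to 70% inhibition, or poor fit; inactive = IC50 above ten times the top dose.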

Assay: growth modulation of Clostridium difficile isolate – OD600, 9-point, retest, dose response (AID 1224920);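 also: plate controls were DMSO for no effect and levofloxacin control for full effect; inhibitors lower culture turbidity so OD600 falls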
Details: Clostridium difficile clinical isolate growth, OD600, 24 h

## COc1ccc2c3c(n(C)c2c1)[C@H](CO)N(C(=O)c1ccncc1)CC31CN(C)C1
At 120 µM (top of the series)
  activity change, negative = inhibition: 3.29% (inactive)

## COc1ccc(NC(=O)N2C[C@@H]3N[C@H](C2)C3c2ccc(-c3cccc(OC)c3)cc2)cc1 (stereo partly specified)
At 60 µM (top of the series)
  activity change, negative = inhibition: 28.8% (inactive)

## O=C(Nc1ccccc1F)N1C[C@@H]2N[C@H](C1)C2c1ccc(-c2ccccc2)cc1 (stereo partly specified)
At 120 µM (top of the series)
  activity change, negative = inhibition: 36.7% (inactive)

## CN1c2ccc(-c3cccc(F)c3)cc2[C@@H]2[C@@H](CCN2C(=O)Cc2ccccc2)[C@@H]1CO
At 135 µM (top of the series)
  activity change, negative = inhibition: 52.8% (inactive)

## CC(=O)N(C)C[C@@H]1[C@@H](c2ccc(-c3ccccc3F)cc2)[C@@H](CO)N1C(C)=O
At 135 µM (top of the series)
  activity change, negative = inhibition: -15.6% (inactive)

## O=C(Nc1ccc(F)cc1)N1CCCCN2[C@H](CO)[C@@H](c3ccc(-c4ccccc4F)cc3)[C@@H]2C1
At 60 µM (top of the series)
  activity change, negative = inhibition: 53.6% (inactive)

## CC(=O)N1[C@@H](CO)[C@@H](c2ccccc2)[C@@H]1CN(C)C(=O)CN1CCOCC1
At 120 µM (top of the series)
  activity change, negative = inhibition: -9.07% (inactive)

## COc1ccc2c3c(n(C)c2c1)[C@@H](CO)N(C(=O)C1CC1)CC31CN(C(=O)Nc2cccc(F)c2)C1
At 120 µM (top of the series)
  activity change, negative = inhibition: 18.8% (inactive)

## Cc1cccc(-c2ccc(C3[C@@H]4CN(C(=O)Cc5ccncc5)C[C@H]3N4)cc2)c1 (stereo partly specified)
At 60 µM (top of the series)
  activity change, negative = inhibition: 39.4% (inactive)

## Cc1ccccc1S(=O)(=O)N1CC[C@H]2[C@H](CO)Nc3ccc(-c4ccc(F)cc4)cc3[C@H]21
At 60 µM (top of the series)
  activity change, negative = inhibition: 13.1% (inactive)

## O=S(=O)(c1ccccc1)N1CCCCN2[C@H](CO)[C@H](c3ccc(C#Cc4ccccc4)cc3)[C@H]2C1
At 120 µM (top of the series)
  activity change, negative = inhibition: 27.6% (inactive)
